Measured values as given in patent US8946215B2, “Hydroxy-substituted imidazo[1,2-a]pyridinecarboxamides and their use” (Bayer Pharma Aktiengesellschaft, priority 2012, dated 2015).
Where a name gives a salt, the structure may show the parent alone.

target: T1, recombinant guanylate cyclase reporter cell line (Rattus norvegicus, UniProt P19686+P20595); assay: Action on recombinant guanylate cyclase reporter cell line; type: cell-based; conditions: in some cases mean values obtained from individual determinations
T1 construct: expressed in transfected cells
T1 sequence (P20595 1-619): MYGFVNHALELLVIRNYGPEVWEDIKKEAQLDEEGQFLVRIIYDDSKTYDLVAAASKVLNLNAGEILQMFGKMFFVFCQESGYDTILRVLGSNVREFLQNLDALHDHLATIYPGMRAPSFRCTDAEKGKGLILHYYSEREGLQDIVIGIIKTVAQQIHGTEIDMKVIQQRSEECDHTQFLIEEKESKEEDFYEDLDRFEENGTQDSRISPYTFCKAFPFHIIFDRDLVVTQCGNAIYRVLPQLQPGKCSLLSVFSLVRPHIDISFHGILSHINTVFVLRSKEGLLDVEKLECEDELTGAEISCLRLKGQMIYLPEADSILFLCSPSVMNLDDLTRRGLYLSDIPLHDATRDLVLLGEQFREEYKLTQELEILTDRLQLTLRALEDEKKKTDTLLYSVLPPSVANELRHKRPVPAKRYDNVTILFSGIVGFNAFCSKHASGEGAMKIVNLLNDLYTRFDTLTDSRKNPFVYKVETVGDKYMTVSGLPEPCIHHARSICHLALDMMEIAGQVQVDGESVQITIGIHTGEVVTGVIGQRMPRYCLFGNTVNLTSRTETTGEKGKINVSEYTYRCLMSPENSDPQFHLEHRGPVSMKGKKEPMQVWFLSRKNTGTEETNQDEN
T1 sequence (P19686 1-690): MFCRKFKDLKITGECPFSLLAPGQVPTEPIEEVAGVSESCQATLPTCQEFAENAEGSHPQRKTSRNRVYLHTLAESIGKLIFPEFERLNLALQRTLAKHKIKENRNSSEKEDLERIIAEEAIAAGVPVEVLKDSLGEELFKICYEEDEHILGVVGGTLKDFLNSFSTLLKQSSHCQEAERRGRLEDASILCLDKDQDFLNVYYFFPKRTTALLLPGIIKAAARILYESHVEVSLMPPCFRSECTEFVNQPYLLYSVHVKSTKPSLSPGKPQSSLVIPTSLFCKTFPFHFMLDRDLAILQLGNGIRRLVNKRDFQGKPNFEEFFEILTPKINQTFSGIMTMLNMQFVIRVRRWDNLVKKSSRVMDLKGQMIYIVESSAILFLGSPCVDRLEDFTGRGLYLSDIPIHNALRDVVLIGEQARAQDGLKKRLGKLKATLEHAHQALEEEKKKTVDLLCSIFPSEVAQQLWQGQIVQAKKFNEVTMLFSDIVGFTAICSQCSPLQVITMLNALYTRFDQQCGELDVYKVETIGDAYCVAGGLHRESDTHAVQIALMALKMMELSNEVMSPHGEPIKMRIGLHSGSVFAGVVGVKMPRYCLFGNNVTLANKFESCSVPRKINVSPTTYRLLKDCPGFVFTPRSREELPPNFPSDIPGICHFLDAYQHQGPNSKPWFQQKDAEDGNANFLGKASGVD
Procedure, shortened: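 Cell-based reporter assay with recombinant guanylate cyclase expressed in a reporter cell line, per a published method. Activity reported as minimal effective concentration (MEC), in some cases as the mean of individual determinations.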

MEC (minimal effective concentration), 0.03 µM:
Cc1nc2c(OCc3c(F)cccc3F)cccn2c1C(=O)N[C@@H](CO)CC(C)C [Example 39, 8-[(2,6-Difluorobenzyl)oxy]-N-[(2R)-1-hydroxy-4-methylpentan-2-yl]-2-methylimidazo[1,2-a]-pyridine-3-carboxamide]

MEC (minimal effective concentration), 0.1 µM:
CCCC[C@H](CO)NC(=O)c1c(C)nc2c(OCc3c(F)cc(F)cc3F)cccn12 [Example 15, N-[(2R)-1-Hydroxyhexan-2-yl]-2-methyl-8-[(2,4,6-trifluorobenzyl)oxy]imidazo[1,2-a]pyridine-3-carboxamide]
CCC[C@H](CO)NC(=O)c1c(C)nc2c(OCc3c(F)cccc3F)cccn12 [Example 18]
CSCC[C@H](CO)NC(=O)c1c(C)nc2c(OCc3c(F)cccc3F)cccn12 [Example 25]
Cc1nc2c(OCc3c(F)cccc3F)cccn2c1C(=O)N[C@@H](CO)C(C)C [Example 29]
Cc1nc2c(OCc3c(F)cccc3F)cccn2c1C(=O)N[C@@H]1CCC[C@H]1O [Example 36]
Cc1nc2c(OCc3c(F)cccc3F)cccn2c1C(=O)N[C@H]1c2ccccc2C[C@H]1O [Example 40, 8-[(2,6-difluorobenzyl)oxy]-N-[(1S,2R)-2-hydroxy-2,3-dihydro-1H-inden-1-yl]-2-methylimidazo[1,2-a]pyridine-3-carboxamide]
CCc1nc2c(OCC3CCCCC3)cccn2c1C(=O)N[C@H](C)CO [Example 55, 8-(Cyclohexylmethoxy)-2-ethyl-N-[(2R)-1-hydroxypropan-2-yl]imidazo[1,2-a]pyridine-3-carboxamide formic acid salt]

MEC (minimal effective concentration), 2.0 µM:
Cc1nc2c(OCc3c(F)cccc3F)cccn2c1C(=O)NC(CO)CO [Example 26]
Cc1nc2c(OCc3cccc(Cl)c3Cl)cccn2c1C(=O)NC(CO)CO [Example 49, 8-[(2,3-dichlorobenzyl)oxy]-N-(1,3-dihydroxypropan-2-yl)-2-methylimidazo[1,2-a]-pyridine-3-carboxamide]

MEC (minimal effective concentration), 10 µM:
Cc1cccc(COc2cccn3c(C(=O)NC(CO)CO)c(C)nc23)c1Cl [Example 52, 8-[(2-chloro-3-methylbenzyl)oxy]-N-(1,3-dihydroxypropan-2-yl)-2-methylimidazo[1,2-a]-pyridine-3-carboxamide]
Cc1nc2c(OCc3c(Cl)cccc3Cl)cccn2c1C(=O)NC(CO)CO [Example 53, 8-[(2,6-dichlorobenzyl)oxy]-N-(1,3-dihydroxypropan-2-yl)-2-methylimidazo[1,2-a]-pyridine-3-carboxamide]

MEC (minimal effective concentration), 3.0 µM:
CCCC[C@H](CO)NC(=O)c1c(C)nc2c(OCc3cccc(C(F)(F)F)c3F)cccn12 [Example 14]
CC[C@H](CO)NC(=O)c1c(C)nc2c(OCc3ccccc3)cccn12 [Example 17, 8-(Benzyloxy)-N-[(2R)-1-hydroxybutan-2-yl]-2-methylimidazo[1,2-a]pyridine-3-carboxamide]
Cc1nc2c(OCc3c(F)cccc3F)cccn2c1C(=O)NCC(C)(C)CO [Example 41, 8-[(2,6-difluorobenzyl)oxy]-N-(3-hydroxy-2,2-dimethylpropyl)-2-methylimidazo[1,2-a]-pyridine-3-carboxamide]
Cc1nc2c(OCc3ccccc3)cccn2c1C(=O)N[C@@H](C)CO [Example 46, 8-(Benzyloxy)-N-[(2S)-1-hydroxypropan-2-yl]-2-methylimidazo[1,2-a]pyridine-3-carboxamide]

MEC (minimal effective concentration), 5.5 µM:
Cc1nc2c(OCc3ccccc3F)cccn2c1C(=O)NC(CO)CO [Example 51, N-(1,3-dihydroxypropan-2-yl)-8-[(2-fluorobenzyl)oxy]-2-methylimidazo[1,2-a]pyridine-3-carboxamide]

MEC (minimal effective concentration), 0.65 µM:
Cc1nc2c(OCc3c(F)cccc3F)cccn2c1C(=O)NCCC(C)O (stereo not drawn) [Example 28]
CC[C@H](CO)NC(=O)c1c(C)nc2c(OCc3cccc(Cl)c3Cl)cccn12 [Example 45, 8-[(2,3-dichlorobenzyl)oxy]-N-[(2R)-1-hydroxybutan-2-yl]-2-methylimidazo[1,2-a]-pyridine-3-carboxamide]

MEC (minimal effective concentration), 1.0 µM:
Cc1nc2c(OCc3c(F)cccc3F)cccn2c1C(=O)N[C@H]1CCC[C@@H]1O [Example 19]
Cc1nc2c(OCc3c(F)cccc3F)cccn2c1C(=O)NC(C)(C)[C@H](C)O [Example 20]
Cc1nc2c(OCc3c(F)cccc3F)cccn2c1C(=O)NCCO [Example 21]
Cc1nc2c(OCc3c(F)cccc3F)cccn2c1C(=O)NCCCO [Example 22]
Cc1nc2c(OCc3c(F)cccc3F)cccn2c1C(=O)NCCOCCO [Example 24]
Cc1nc2c(OCc3c(F)cccc3F)cccn2c1C(=O)NC1(CO)CCCC1 [Example 31]
Cc1nc2c(OCc3c(F)cccc3F)cccn2c1C(=O)NC[C@@H](O)c1ccccc1 [Example 32]
Cc1nc2c(OCc3ccccc3)cccn2c1C(=O)NCCC1(O)CCCC1 [Example 48, 8-(benzyloxy)-N-[2-(1-hydroxycyclopentyl)ethyl]-2-methylimidazo[1,2-a]pyridine-3-carboxamide]
C[C@@H](CO)NC(=O)c1c(C(F)(F)F)nc2c(OCC3CCCCC3)cccn12 [Example 56, 8-(cyclohexylmethoxy)-N-[(2S)-1-hydroxypropan-2-yl]-2-(trifluoromethyl)imidazo[1,2-a]pyridine-3-carboxamide]

MEC (minimal effective concentration), 0.16 µM:
CC[C@H](CO)NC(=O)c1c(C)nc2c(OCc3c(F)cccc3F)cccn12 [Example 43, 8-[(2,6-Difluorobenzyl)oxy]-N-[(2R)-1-hydroxybutan-2-yl]-2-methylimidazo[1,2-a]pyridine-3-carboxamide]

MEC (minimal effective concentration), 0.3 µM:
Cc1nc2c(OCc3c(F)cccc3F)cccn2c1C(=O)NCCCCO [Example 23]
Cc1nc2c(OCc3c(F)cccc3F)cccn2c1C(=O)NCC1CCCC[C@H]1O (stereo partly drawn) [Example 27]
CCC(O)CNC(=O)c1c(C)nc2c(OCc3c(F)cccc3F)cccn12 (stereo not drawn) [Example 30]
Cc1nc2c(OCc3c(F)cccc3F)cccn2c1C(=O)NC[C@H](O)c1ccccc1 [Example 33]
Cc1nc2c(OCc3c(F)cccc3F)cccn2c1C(=O)NC(C)(C)CO [Example 34]
Cc1nc2c(OCc3c(F)cccc3F)cccn2c1C(=O)N[C@@H](CO)C(C)(C)C [Example 35]
Cc1nc2c(OCc3c(F)cccc3F)cccn2c1C(=O)N[C@@H]1CCC[C@@H]1O [Example 37]
Cc1nc2c(OCc3c(F)cccc3F)cccn2c1C(=O)N[C@@H](CO)Cc1ccccc1 [Example 38]
CC[C@H](CO)NC(=O)c1c(C)nc2c(OCc3cccc(F)c3F)cccn12 [Example 44, 8-[(2,3-difluorobenzyl)oxy]-N-[(2R)-1-hydroxybutan-2-yl]-2-methylimidazo[1,2-a]-pyridine-3-carboxamide]
Cc1nc2c(OCc3cccc(Cl)c3Cl)cccn2c1C(=O)NCCC1(O)CCCC1 [Example 47, 8-[(2,3-dichlorobenzyl)oxy]-N-[2-(1-hydroxycyclopentyl)ethyl]-2-methylimidazo[1,2-a]-pyridine-3-carboxamide]
